The record followed here is patent publication EP3807270B1, “NOVEL HETEROARYL HETEROCYCLYL COMPOUNDS FOR THE TREATMENT OF AUTOIMMUNE DISEASE” (F. Hoffmann-La Roche AG, priority 2018, dated 2019).

pIC50: −log10 of the molar value.

For data set [1], the target named is T1, hTLR9 (Homo sapiens, UniProt Q9NR96).
T1 sequence (Q9NR96 26-1032): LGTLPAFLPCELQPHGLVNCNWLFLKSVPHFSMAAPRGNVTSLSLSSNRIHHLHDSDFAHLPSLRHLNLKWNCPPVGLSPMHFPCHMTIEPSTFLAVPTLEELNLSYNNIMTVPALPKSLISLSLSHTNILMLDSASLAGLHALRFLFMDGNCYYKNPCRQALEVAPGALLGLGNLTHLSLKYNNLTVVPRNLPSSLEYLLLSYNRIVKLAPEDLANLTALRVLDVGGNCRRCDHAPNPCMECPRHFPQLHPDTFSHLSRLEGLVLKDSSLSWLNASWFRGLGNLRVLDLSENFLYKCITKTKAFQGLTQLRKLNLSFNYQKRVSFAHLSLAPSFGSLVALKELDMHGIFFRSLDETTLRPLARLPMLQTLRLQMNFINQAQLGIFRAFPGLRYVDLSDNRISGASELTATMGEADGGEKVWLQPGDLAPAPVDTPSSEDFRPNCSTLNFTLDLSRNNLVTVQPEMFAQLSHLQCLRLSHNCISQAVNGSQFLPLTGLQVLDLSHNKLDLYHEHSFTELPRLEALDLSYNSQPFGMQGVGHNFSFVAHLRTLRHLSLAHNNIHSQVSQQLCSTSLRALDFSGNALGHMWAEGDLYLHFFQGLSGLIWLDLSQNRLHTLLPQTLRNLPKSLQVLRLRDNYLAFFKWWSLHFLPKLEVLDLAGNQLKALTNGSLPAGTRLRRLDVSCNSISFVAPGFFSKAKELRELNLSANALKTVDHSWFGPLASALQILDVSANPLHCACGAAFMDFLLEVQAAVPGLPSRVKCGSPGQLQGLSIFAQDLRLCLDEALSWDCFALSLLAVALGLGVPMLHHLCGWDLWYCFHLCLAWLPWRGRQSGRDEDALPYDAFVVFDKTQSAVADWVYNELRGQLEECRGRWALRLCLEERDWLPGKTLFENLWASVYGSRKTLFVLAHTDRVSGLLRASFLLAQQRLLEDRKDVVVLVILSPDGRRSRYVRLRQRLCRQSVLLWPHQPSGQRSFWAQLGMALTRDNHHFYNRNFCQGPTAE
As to the kind of experiment: HEK293-Blue-hTLR-9 cells assay (SEAP reporter, ODN2006 stimulation). In kind it is cell-based. Set-up: host or cells: HEK293 (HEK-Blue). The conditions noted are these: HEK293-Blue-hTLR9 cells, ODN2006, 20 hrs; read-out: HEK/hTLR9 IC50. A digest of the protocol: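 HEK293-Blue-hTLR9 cells (250,000-450,000 cells/mL) in DMEM with 10% FBS were treated with serially diluted compound (1% DMSO final) plus ODN2006 for 20 hrs at 37 °C. Supernatant SEAP activity was measured with QUANTI-Blue substrate for 2 hrs at 37 °C, reading absorbance at 620-655 nm.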

A short description of data set [2]: Human microsome stability assay. In kind it is in vitro ADME. Conditions: 1 µM test compound, 0.5 mg/mL liver microsomal protein, 37 °C. An outline of the steps:
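Test compound at 1 µM was incubated with human liver microsomes (0.5 mg/mL protein) and an NADPH-regenerating system in 100 mM potassium phosphate, pH 7.4, at 37 °C. Samples were taken at 0–30 min and quenched with acetonitrile. Remaining compound was quantified by LC-MS/MS, with no-NADPH controls.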
A general note: Liver microsomes are vesicles of endoplasmic reticulum, rich in cytochrome P450 enzymes.

Take `CC1NCc2cc(N3CCN(C[C@H]4CN(c5ccc(C#N)c6ncccc56)C[C@@H](C)O4)CC3)ccc21` (stereo partly drawn) [Example 28, 5-[(2R,6S)-2-methyl-6-[[4-(1-methylisoindolin-5-yl)piperazin-1-yl]methyl]morpholin-4-yl]quinoline-8-carbonitrile]: the pIC50 in data set [1] was 7.28. Besides, in data set [2], the “Clearance of Human microsome” value is listed as 6.15 mL/min/kg.

Turning to `C[C@@H]1CN(c2ccc(C#N)c3ncccc23)C[C@H](CN2CCN(c3ccc4c(n3)CNCC4)CC2)O1` [Example 69, 5-[(2R,6S)-2-methyl-6-[[4-(5,6,7,8-tetrahydro-1,7-naphthyridin-2-yl)piperazin-1-yl]methyl]morpholin-4-yl]quinoline-8-carbonitrile], in data set [1], the pIC50 is 7.08. Also, the “Clearance of Human microsome” value in data set [2] stood at 6.23 mL/min/kg.

As for `C[C@@H]1CN(c2ccc(C#N)c3nccnc23)C[C@H](CN2CCN(c3cc4c(cn3)CCNC4)CC2)O1` [Example 80, 8-[(2R,6S)-2-methyl-6-[[4-(5,6,7,8-tetrahydro-2,6-naphthyridin-3-yl)piperazin-1-yl]methyl]morpholin-4-yl]quinoxaline-5-carbonitrile], the pIC50 in data set [1] was 7.00. Further, the “Clearance of Human microsome” value in data set [2] is recorded as 6.15 mL/min/kg.

On to `C[C@@H]1CN(c2ccc(C#N)c3ncccc23)C[C@H](CN2CCN(c3ccc(Cl)cc3)CC2)O1` [Example R2, 5-[(2S,6R)-2-[[4-(4-chlorophenyl)piperazin-1-yl]methyl]-6-methyl-morpholin-4-yl]quinoline-8-carbonitrile, reference compound], for which the pIC50 in data set [1] is 5.15. Besides, in data set [2], the “Clearance of Human microsome” value worked out at 15.43 mL/min/kg.
